Assays:
[1] = system: acetyl-histone H3; assay: Western blot, acetylation of histone H3 in Hela cells; format: cell-based, human; settings: 5 μM, reference drug
Experimental: (§1) Afterwards, the Hela cells were collected using centrifugation, and were then lysed by the lysate, which were carried out further centrifugation at 12,000 rpm for 30 min. The protein of supernatant obtained by centrifugation was quantified using the BCA kit (Beijing Solarbio Science & Technology Co., Ltd.), and the protein extracts were mixed with the SDS-PAGE protein loading buffer (Beijing Solarbio Science & Technology Co., Ltd.), which were subject to 100°C water bath for 10 min to sufficiently denaturate. The gel was gelatinized using the SDS Gel Kit (Beijing Solarbio Science & Technology Co., Ltd.) and protein extracts were separated by protein SDS-polyacrylamide gel electrophoresis and then transferred to Immobilon-NC Membrane (Beijing Solarbio Science & Technology Co., Ltd.). After the blocking with 5% non-fat dried milk in TBS for 90 min at room temperature, the membranes were incubated overnight with specific primary antibodies (AFFINITY BIOSCIENCE) at 4°C, which were further incubated with secondary antibodies for 2 h after washing three times with TBST. The chemiluminescence analysis system was applied to label the target protein with a specific primary antibody and the target protein was detected using a specific antibody.

[2] = system: acetyl-α-tubulin; assay: Western blot, acetylation of α-tubulin in Hela cells; format: cell-based, human; settings: 5 μM, reference drug
Experimental: as §1

[3] = system: Hela; assay: MTT anti-proliferative assay, Hela; settings: Homo sapiens, 48 h, read-out: IC50 Hela
Experimental: (§2) The antitumor bioactivities of the tittle compounds in vitro were firstly evaluated against four different human tumor cell lines [breast lung cancer (A549), cervical cancer (Hela), liver cancer (HepG2), breast cancer (MCF-7)] via MTT assay, and a normal cell line [human lung fibroblast (WI-38)] was applied to assess the safety of the synthesized compounds. […] In this study, the tested compounds were diluted to the required concentration with culture medium, and growth inhibitory effects against the cell lines of the tittle compounds were determined by MTT colorimetric assay. […] The microplate reader was adopted to record the absorbance at 490 nm for each well of the plates.

[4] = system: WI-38; assay: MTT cytotoxicity assay, normal cell line WI-38; settings: Homo sapiens, WI-38, 48 h, read-out: IC50 WI-38
Experimental: as §2

[5] = system: A549; assay: MTT anti-proliferative assay, A549; settings: Homo sapiens, A549, 48 h, read-out: IC50 A549
Experimental: as §2

[6] = system: HepG2; assay: MTT anti-proliferative assay, HepG2; settings: Homo sapiens, HepG2, 48 h, read-out: IC50 HepG2
Experimental: as §2

[7] = system: MCF-7; assay: MTT anti-proliferative assay, MCF-7; settings: Homo sapiens, MCF7, 48 h, read-out: IC50 MCF-7
Experimental: as §2

| Structure (SMILES) | acetylation level of histone H3 [1] | acetylation level of α-Tubulin [2] | melting point | IC50 [3] | IC50 [4] | IC50 [5] | IC50 [6] | IC50 [7] |
| --- | --- | --- | --- | --- | --- | --- | --- | --- |
| O=C(CCCCCCC(=O)Nc1ccccc1)NO [SAHA, suberoylanilide hydroxamic acid, reference compound] | up-regulated | increase |  |  |  |  |  |  |
| CC(O)CNC(=O)CCCCCNC(=O)c1ccc(F)cc1 (centres unmarked) [a1, 4-fluoro-N-(6-((2-hydroxypropyl)amino)-6-oxohexyl) benzamide] |  |  | 99.3 to 100.8 °C |  |  |  |  |  |
| CC(O)CNC(=O)CCCCCNC(=O)c1ccc(Cl)cc1 (centres unmarked) [a2, 4-chloro-N-(6-((2-hydroxypropyl)amino)-6-oxohexyl) benzamide] |  |  | 93.9 to 95.7 °C |  |  |  |  |  |
| CC(O)CNC(=O)CCCCCNC(=O)c1ccccc1Cl (centres unmarked) [a3, 2-chloro-N-(6-((2-hydroxypropyl)amino)-6-oxohexyl) benzamide] |  |  | 110.2 to 113.6 °C |  |  |  |  |  |
| CC(O)CNC(=O)CCCCCNC(=O)c1ccc(Br)cc1 (centres unmarked) [a4, 4-bromo-N-(6-((2-hydroxypropyl)amino)-6-oxohexyl) benzamide] |  |  | 112.4 to 114.7 °C |  |  |  |  |  |
| CC(O)CNC(=O)CCCCCNC(=O)c1ccc(I)cc1 (centres unmarked) [a5, N-(6-((2-hydroxypropyl)amino)-6-oxohexyl)-4-iodobenzamide] |  |  | 148.7 to 150.2 °C | 35.8 ± 2.43 µM | 158 ± 3.16 µM | 45.6 ± 2.81 µM | 68.9 ± 1.95 µM | 63.2 ± 4.32 µM |
| Cc1ccc(C(=O)NCCCCCC(=O)NCC(C)O)cc1 (centres unmarked) [a6, N-(6-((2-hydroxypropyl)amino)-6-oxohexyl)-4-methylbenzamide] |  |  | 114.2 to 116.8 °C | 19.6 ± 3.92 µM | 97.2 ± 6.36 µM | 39.2 ± 3.88 µM | 74.9 ± 2.05 µM | 44.8 ± 2.01 µM |
| CC(O)CNC(=O)CCCCCNC(=O)c1ccc([N+](=O)[O-])cc1 (centres unmarked) [a7, N-(6-((2-hydroxypropyl)amino)-6-oxohexyl)-4-nitrobenzamide] |  |  | 124.3 to 126.1 °C | 25.8 ± 8.93 µM | 211 ± 4.32 µM | 43.8 ± 4.82 µM | 88.3 ± 8.64 µM | 58.7 ± 3.86 µM |
| CC(O)CNC(=O)CCCCCNC(=O)c1ccc(C(F)(F)F)cc1 (centres unmarked) [a9, N-(6-((2-hydroxypropyl)amino)-6-oxohexyl)-4-(trifluoromethyl) benzamide] |  |  | 106.3 to 108.1 °C |  |  |  |  |  |
| CC(O)CNC(=O)CCCCCNC(=O)c1ccc(-c2ccccc2)cc1 (centres unmarked) [a10, N-(6-((2-hydroxypropyl)amino)-6-oxohexyl)-[1, 1’-biphenyl]-4-carboxamide] |  |  | 140.3 to 142.6 °C | 38.4 ± 1.01 µM | 126 ± 7.83 µM | 19.8 ± 2.11 µM | 26.8 ± 3.22 µM | 48.4 ± 2.21 µM |
| CC(O)CNC(=O)CCCCCNC(=O)c1ccc2ccccc2c1 (centres unmarked) [a11, N-(6-((2-hydroxypropyl)amino)-6-oxohexyl)-2-naphthamide] |  |  | 111.6 to 113.6 °C | 21.8 ± 2.42 µM | 109 ± 4.63 µM | 26.6 ± 2.81 µM | 29.2 ± 3.22 µM | 38.4 ± 2.12 µM |
| CC(O)CNC(=O)CCCCCNC(=O)c1ccc2c(c1)OCO2 (centres unmarked) [a12, N-(6-((2-hydroxypropyl)amino)-6-oxohexyl) benzo [d][1,3] dioxole-5-carboxamide] |  |  | 123.6 to 125.3 °C | 35.6 ± 0.89 µM | 147 ± 3.82 µM | 28.4 ± 2.01 µM | 37.6 ± 2.89 µM | 44.6 ± 4.62 µM |
| O=C(CCCCCNC(=O)c1ccccc1)NCCO [b1, N-(6-((2-hydroxyethyl)amino)-6-oxohexyl) benzamide] |  |  | 111.2 to 114.5 °C | 90.4 ± 2.21 µM | 194 ± 5.32 µM | 33.1 ± 0.96 µM | 84.5 ± 1.33 µM | 94.3 ± 15.3 µM |
| O=C(CCCCCNC(=O)c1ccc(F)cc1)NCCO [b2, 4-fluoro-N-(6-((2-hydroxyethyl)amino)-6-oxohexyl) benzamide] |  |  | 131.2 to 132.9 °C |  |  |  |  |  |
| O=C(CCCCCNC(=O)c1ccc(Cl)cc1)NCCO [b3, 4-chloro-N-(6-((2-hydroxyethyl)amino)-6-oxohexyl) benzamide] |  |  | 112.4 to 115.9 °C |  |  |  |  |  |
| O=C(CCCCCNC(=O)c1ccc(Br)cc1)NCCO [b4, 4-bromo-N-(6-((2-hydroxyethyl)amino)-6-oxohexyl) benzamide] |  |  | 115.7 to 118.7 °C |  |  |  |  |  |
| O=C(CCCCCNC(=O)c1ccc(I)cc1)NCCO [b5, N-(6-((2-hydroxyethyl)amino)-6-oxohexyl)-4-iodobenzamide] |  |  | 150.4 to 150.9 °C | 61 ± 5.31 µM | 130 ± 5.02 µM | 48.3 ± 0.92 µM | 90.3 ± 8.18 µM | 64.5 ± 11.1 µM |
| Cc1ccc(C(=O)NCCCCCC(=O)NCCO)cc1 [b6, N-(6-((2-hydroxyethyl)amino)-6-oxohexyl)-4-methylbenzamide] |  |  |  | 59.7 ± 2.67 µM | 144 ± 8.05 µM | 26.9 ± 4.79 µM | 77.2 ± 4.43 µM | 99.2 ± 1.9 µM |
| Cc1cc(C)cc(C(=O)NCCCCCC(=O)NCCO)c1 [b7, N-(6-((2-hydroxyethyl)amino)-6-oxohexyl)-3,5-dimethylbenzamide] |  |  | 110.1 to 111.8 °C | 96.8 ± 2.09 µM | 184 ± 7.16 µM | 32.3 ± 3.13 µM | 88 ± 9.39 µM | 83.6 ± 23.2 µM |
| O=C(CCCCCNC(=O)c1ccc(C(F)(F)F)cc1)NCCO [b9, N-(6-((2-hydroxyethyl)amino)-6-oxohexyl)-4-(trifluoromethyl) benzamide] |  |  | 105 to 106.3 °C |  |  |  |  |  |
| O=C(CCCCCNC(=O)c1ccc2c(c1)OCO2)NCCO [b10, N-(6-((2-hydroxyethyl)amino)-6-oxohexyl) benzo[d][1,3] dioxole-5-carboxamide] |  |  | 94.5 to 96.7 °C | 38.1 ± 1.28 µM | 193 ± 6.53 µM | 28.2 ± 0.87 µM | 33.9 ± 2.71 µM | 93.2 ± 3.53 µM |
| CN(C)c1ccc(C(=O)NCCCCCC(=O)NCCO)cc1 [b11, 4-(dimethylamino)-N-(6-((2-hydroxyethyl)amino)-6-oxohexyl) benzamide] |  |  | 120.4 to 122.3 °C |  |  |  |  |  |
| O=C(CCCCCNC(=O)c1ccc2ccccc2c1)NCCO [b12, N-(6-((2-hydroxyethyl)amino)-6-oxohexyl)-2-naphthamide] |  |  | 115.1 to 117.8 °C | 76.4 ± 6.78 µM | 161 ± 8.64 µM | 33.4 ± 2.12 µM | 37.6 ± 6.14 µM | 98.7 ± 7.67 µM |

— article PMC7174758, “Synthesis and Biological Evaluation of HDAC Inhibitors With a Novel Zinc Binding Group” (Frontiers in Chemistry, 2020)
